Structures can show the parent of a compound that is named as a salt. Where two headings read alike, the source gives them in different places.
Tested on: endosomal acidification in Vero cells
Assay: cells
Assay type: cell-based
Conditions: for inhibition at 40 µM: Chlorocebus sabaeus, read-out: Percent Inhibition (%) of endosomal acidification
Method: Inhibition of endosomal acidification was measured using LysoTracker Red DND-99 (ThermoFisher). […] Data were plotted using Prism 9 (GraphPad).

[1] = Vero cells, 40 μM, singlet (n=1)

Molecule | inhibition at 40 µM [1] | other results
Cc1cc(C(C)(C)CC(C)(C)C)ccc1OCCOCC[N+](C)(C)Cc1ccccc1.[Cl-] [METHYLBENZETHONIUM CHLORIDE] | – | Percent Inhibition (%) of endosomal acidification [1]: 85%
CNCCCC12CCC(c3ccccc31)c1ccccc12 [MAPROTILINE HYDROCHLORIDE] | – | inhibition at 40 µM (Vero): 60%
CNCC[C@H](Oc1cccc2ccccc12)c1cccs1 [DULOXETINE HYDROCHLORIDE] | – | inhibition at 40 µM (Vero): 59%
C[n+]1c2cc(N)ccc2cc2ccc(N)cc21.[Cl-] [ACRIFLAVINIUM HYDROCHLORIDE] | – | Percent Inhibition (%) of endosomal acidification [1]: 51%
Oc1ccc(Cl)cc1Cc1cc(Cl)ccc1O [DICHLOROPHEN] | 86% | –
CHLOROPHYLLIDE Cu COMPLEX Na SALT | – | Percent Inhibition (%) of endosomal acidification [1]: 77%
C[C@@H](O[C@H]1OCCN(Cc2n[nH]c(=O)[nH]2)[C@H]1c1ccc(F)cc1)c1cc(C(F)(F)F)cc(C(F)(F)F)c1 [APREPITANT] | 62% | –
BENZALKONIUM CHLORIDE | – | Percent Inhibition (%) of endosomal acidification [1]: 88%
C=CC(C1=CC(=O)C=CC1=O)c1ccccc1 (stereo not shown) [DALBERGIONE] | 85% | –
c1ccc(-c2ccc(C(c3ccccc3)n3ccnc3)cc2)cc1 (stereo not shown) [BIFONAZOLE] | 50% | –
Nc1c2ccccc2nc2ccccc12 [AMINACRINE] | 69% | –
CNCCC(Oc1ccc(C(F)(F)F)cc1)c1ccccc1 (stereo not shown) [FLUOXETINE] | 67% | –
CN(C)CCCN1c2ccccc2Sc2ccc(Cl)cc21 [CHLORPROMAZINE] | 65% | –
CCCCCCCCCc1ccc(O)cc1 [4-NONYLPHENOL] | 79% | –
Cc1cc(C(C#N)c2ccc(Cl)cc2)c(Cl)cc1NC(=O)c1cc(I)cc(I)c1O (stereo not shown) [CLOSANTEL] | 56% | –
Cc1cc2c(C(C)C)c(O)c(O)c(C=O)c2c(O)c1-c1c(C)cc2c(C(C)C)c(O)c(O)c(C=O)c2c1O [GOSSYPOL] | 80% | –
CC(C)c1ccc2c(c1)CC[C@H]1[C@](C)(CN)CCC[C@]21C [18-AMINOABIETA-8,11,13-TRIENE SULFATE] | 67% | –
CC(C)c1c(O)ccc2c1CC[C@H]1C(C)(C)CCC[C@]21C [TOTAROL] | 74% | –
CCCCC/C=C\C/C=C\C/C=C\C/C=C\CCCC(=O)O [ARACHIDONIC ACID] | 64% | –
CC(CN(C)C)CN1c2ccccc2Sc2ccccc21.CC(CN(C)C)CN1c2ccccc2Sc2ccccc21.O=C(O)C(O)C(O)C(=O)O (stereo not shown) [TRIMEPRAZINE TARTRATE] | – | Percent Inhibition (%) of endosomal acidification [1]: 78%
C[C@H]1CC[C@]2(NC1)O[C@H]1C[C@H]3[C@@H]4CC[C@H]5C[C@@H](O[C@@H]6O[C@H](CO)[C@H](O[C@@H]7O[C@H](CO)[C@@H](O)[C@H](O[C@@H]8OC[C@@H](O)[C@H](O)[C@H]8O)[C@H]7O[C@@H]7O[C@H](CO)[C@@H](O)[C@H](O)[C@H]7O)[C@H](O)[C@H]6O)CC[C@]5(C)[C@H]4CC[C@]3(C)[C@H]1[C@@H]2C [TOMATINE] | 72% | –
[H]/N=C(/N)N[C@H]1[C@H](O)[C@@H](O)[C@H](O[C@@H]2O[C@@H](C)[C@](O)(C=O)[C@H]2O[C@@H]2O[C@@H](CO)[C@H](O)[C@@H](O)[C@@H]2NC)[C@@H](N/C(N)=N\[H])[C@@H]1O [STREPTOMYCIN SULFATE] | 101% | –
CCCCc1oc2ccc(NS(C)(=O)=O)cc2c1C(=O)c1ccc(OCCCN(CCCC)CCCC)cc1 [DRONEDARONE HYDROCHLORIDE] | 85% | –
CC(C)COCC(CN(Cc1ccccc1)c1ccccc1)N1CCCC1 (stereo not shown) [BEPRIDIL HYDROCHLORIDE] | 71% | –

Molecule | inhibition at 40 µM [1] | other results
CCN(CC)CCCC(C)Nc1c2ccc(Cl)cc2nc2ccc(OC)cc12 (stereo not shown) [QUINACRINE HYDROCHLORIDE] | 63% | –
CC(=O)O[C@@H]1CC[C@@]2(C)[C@@H](CC[C@@H]3[C@@H]2CC[C@]2(C)C(=O)CC[C@@H]32)C1 [AN[…]] | 50% | –
CN(C)CCC=C1c2ccccc2CCc2ccccc21 [AMITRIPTYLINE HYDROCHLORIDE] | 53% | –
Clc1ccc(COC(Cn2ccnc2)c2ccc(Cl)cc2Cl)c(Cl)c1 (stereo not shown) [MICONAZOLE NITRATE] | 81% | –
O=C(Nc1ccccc1)OCC(CN1CCCCC1)OC(=O)Nc1ccccc1 (stereo not shown) [DIPERODON HYDROCHLORIDE] | 54% | –
Clc1ccc(COC(Cn2ccnc2)c2ccc(Cl)cc2Cl)cc1 (stereo not shown) [ECONAZOLE NITRATE] | 76% | –
Nc1ccc2cc3ccc(N)cc3nc2c1 [PROFLAVINE HEMISULFATE] | 54% | –
CC(C)N1CCN(c2ccc(OCC3COC(Cn4cncn4)(c4ccc(Cl)cc4Cl)O3)cc2)CC1 (stereo not shown) [TERCONAZOLE] | 64% | –
CC(C)=CCC[C@]1(C)C=Cc2c(O)c3c(c(CC=C(C)C)c2O1)O[C@]12C(=C[C@@H]4C[C@H]1C(C)(C)O[C@@]2(C/C=C(/C)C(=O)O)C4=O)C3=O [GAMBOGIC ACID] | 90% | –
CC(=O)c1ccc2c(c1)N(CCCN1CCN(CCO)CC1)c1ccccc1S2.O=C(O)/C=C\C(=O)O.O=C(O)/C=C\C(=O)O [ACETOPHENAZINE MALEATE] | – | Percent Inhibition (%) of endosomal acidification [1]: 62%
CN(C)CCOc1ccc(/C(=C(/CCCl)c2ccccc2)c2ccccc2)cc1 [TOREMIPHENE CITRATE] | – | Percent Inhibition (%) of endosomal acidification [1]: 68%
CSc1ccc2c(c1)N(CCC1CCCCN1C)c1ccccc1S2 (stereo not shown) [THIORIDAZINE HYDROCHLORIDE] | – | inhibition at 40 µM (Vero): 92%
Cc1ccc(C(C)C)cc2c(C)ccc1-2 [GUAIAZULENE] | 64% | –
C[C@@H]1[C@H](O)[C@@H](C)/C=C/C=C/C=C/C=C/C=C/C=C/C=C/[C@H](O[C@@H]2O[C@H](C)[C@@H](O)[C@H](N)[C@@H]2O)C[C@@H]2O[C@](O)(C[C@@H](O)C[C@@H](O)[C@H](O)CC[C@@H](O)C[C@@H](O)CC(=O)O[C@H]1C)C[C@H](O)[C@H]2C(=O)O [AMPHOTERICIN B] | 60% | –
Cl.N=C(N/N=C/c1ccc(Cl)cc1)N/N=C/c1ccc(Cl)cc1 [ROBENIDINE HYDROCHLORIDE] | – | Percent Inhibition (%) of endosomal acidification [1]: 76%
CN1[C@@H]2CC[C@H]1C[C@@H](OC(c1ccccc1)c1ccccc1)C2 [BENZTROPINE MESYLATE] | 50% | –
COc1cc(-c2ccc(/N=N/c3ccc4c(S(=O)(=O)O)cc(S(=O)(=O)O)c(N)c4c3O)c(OC)c2)ccc1/N=N/c1ccc2c(S(=O)(=O)O)cc(S(=O)(=O)O)c(N)c2c1O [CHICAGO SKY BLUE] | 54% | –
CN1CCC(=C2c3ccccc3CCc3sccc32)CC1.O=C(O)CC(O)C(=O)O [PIZOTYLINE MALATE] | – | Percent Inhibition (%) of endosomal acidification [1]: 50%
OCCN1CCN(CCCN2c3ccccc3Sc3ccc(C(F)(F)F)cc32)CC1 [FLUPHENAZINE HYDROCHLORIDE] | 78% | –
Oc1cc(Cl)ccc1Oc1ccc(Cl)cc1Cl [TRICLOSAN] | 96% | –
CC(=O)c1ccc2c(c1)N(CCCN(C)C)c1ccccc1S2 [ACEPROMAZINE MALEATE] | 67% | –
CN1CCN(CC/C=C2/c3ccccc3Sc3ccc(S(=O)(=O)N(C)C)cc32)CC1 [THIOTHIXENE] | 80% | –
CCCCCCCCCCCCCCCCC(C(=O)O)C(O)(CC(=O)O)C(=O)O (stereo not shown) [AGARIC ACID] | – | Percent Inhibition (%) of endosomal acidification [1]: 89%
CCOC(=O)C1=C(COCCN)NC(C)=C(C(=O)OC)C1c1ccccc1Cl (stereo not shown) [AMLODIPINE BESYLATE] | 76% | –

Molecule | inhibition at 40 µM [1] | other results
CCCCCCCCCCCCCCCC[N+](C)(C)Cc1ccccc1 [C[…]] | 90% | –
CC/C(=C(\c1ccccc1)c1ccc(OCCN(C)C)cc1)c1ccccc1 [TAMOXIFEN CITRATE] | 82% | –
C#C[C@]1(O)CC[C@H]2[C@@H]3CCC4=CCCC[C@@H]4[C@H]3CC[C@@]21C [LYNESTRENOL] | 86% | –
O=C(CCCN1CCC(O)(c2ccc(Br)cc2)CC1)c1ccc(F)cc1 [BROMPERIDOL] | 50% | –
CCCCC(CC)CNC(=N)NC(=N)NCCCCCCNC(=N)NC(=N)NCC(CC)CCCC (stereo not shown) [ALEXIDINE HYDROCHLORIDE] | 95% | –
CCCCCCCCCc1ccc(OCCOCCOCCOCCOCCOCCOCCOCCOCCO)cc1 [NONOXYNOL-9] | 91% | –
O=c1[nH]c2ccccc2n1C1CCN(CCCC(c2ccc(F)cc2)c2ccc(F)cc2)CC1 [PIMOZIDE] | 54% | –
CN(C)[C@@H](CCOc1cccc2ccccc12)c1ccccc1 [DAPOXETINE HYDROCHLORIDE] | 91% | –
Cc1ccc(Sc2ccccc2N2CCNCC2)c(C)c1 [VORTIOXETINE HYDROBROMIDE] | 63% | –
Clc1ccc(C(Cn2ccnc2)OCc2c(Cl)cccc2Cl)c(Cl)c1 (stereo not shown) [I[…]] | 79% | –
CN1C[C@H](CNC(=O)OCc2ccccc2)C[C@@H]2c3cccc4c3c(cn4C)C[C@H]21 [METERGOLINE] | 53% | –
CN(C)CCCN1c2ccccc2Sc2ccccc21 [PROMAZINE HYDROCHLORIDE] | 75% | –
CN(C)CCCN1c2ccccc2Sc2ccc(C(F)(F)F)cc21 [TRIFLUPROMAZINE HYDROCHLORIDE] | 86% | –
CCC(=O)O[C@H]1CC[C@H]2[C@@H]3CCC4=CC(=O)CC[C@]4(C)[C@H]3CC[C@]12C [TESTOSTERONE PROPIONATE] | 64% | –
CCN(CC)CCOc1ccc2c(c1)C(=O)c1cc(OCCN(CC)CC)ccc1-2 [TILORONE] | 59% | –
COc1c(O)cc2oc3cc(O)c(CC=C(C)C)c(O)c3c(=O)c2c1CC=C(C)C [alpha-MANGOSTIN] | – | Percent Inhibition (%) of endosomal acidification [1]: 86%
OC(CNCC(O)C1CCc2cc(F)ccc2O1)C1CCc2cc(F)ccc2O1 (stereo not shown) [NEBIVOLOL HYDROCHLORIDE] | 52% | –
OC(c1cc(C(F)(F)F)nc2c(C(F)(F)F)cccc12)C1CCCCN1 (stereo not shown) [MEFLOQUINE] | 64% | –
CCCCCCc1ccc(O)cc1O.Nc1c2ccccc2nc2ccccc12 [ACRISORCIN] | – | Percent Inhibition (%) of endosomal acidification [1]: 50%
C[C@@H](NCCCc1cccc(C(F)(F)F)c1)c1cccc2ccccc12 [CINACALCET HYDROCHLORIDE] | 91% | –
CC(CN1c2ccccc2Sc2ccccc21)N(C)C (stereo not shown) [PROMETHAZINE HYDROCHLORIDE] | 56% | –
CC1=C(O)C(=O)C=C2C1=CC=C1[C@@]2(C)CC[C@@]2(C)[C@@H]3C[C@](C)(C(=O)O)CC[C@]3(C)CC[C@]12C [CELASTROL] | 92% | –

From article PMC9295568, “Dual Inhibition of Vacuolar-ATPase and TMPRSS2 Is Required for Complete Blockade of SARS-CoV-2 Entry into Cells” (Antimicrobial Agents and Chemotherapy, 2022)
